Laboratory results taken from patent publication US9555038B2, “Heterocycle-substituted tetracyclic compounds and methods of use thereof for the treatment of viral diseases” (Merck Sharp & Dohme Corp., priority 2013, dated 2017).
Read-outs that look alike come from different tables or passages of the source.

Legend:
HCV replicon 2B = experiment: Cell-based HCV Replicon Assay A, replicon 2B
Experimental: (§1) To measure cell-based anti-HCV activity of compounds of the present invention, two complimentary assays were employed using various replicons. In the first assay (“Replicon Assay A”), replicon cells were seeded at 2000 cells/well in 384-well 384-well flat bottom tissue culture treated clear bottom plate (Corning 3707) in the presence of the test compound. Various concentrations of test compound, typically in 10 serial dilutions, were added to the assay mixture, with the starting concentration ranging from 333.3 nM to […]. The final concentration of DMSO was 0.5%. Fetal bovine serum was 5%, in the assay media. Cells were harvested on day 3 by removing media and washing the cells with a suitable wash buffer. The cells are lysed with the addition of 1× Qiagen lysis buffer (Cat #1062731). The replicon RNA level was measured using real time PCR (TaqMan® EZ RT-PCR, Applied Biosystems 403028) with the following primers and probes: […]
(§2) Cyclophilin RNA was used as endogenous control and was amplified in the same reaction as NS5B (multiplex PCR). The real-time RT-PCR reactions were run on ABI PRISM 7900HT Sequence Detection System using the following program: 50° C. for 2 minutes, 60° C. for 30 minutes, 95° C. for 5 minutes, 40 cycles of 94° C. for 20 sec, 55° C. for 1 minutes.
(§3) The amount of HCV replicon RNA per cell is quantified using a linear regression curve for a known nanogram (ng) amount of HCV replicon total RNA. This is established by plotting the Cycle Threshold values (Ct) from the Neo probe and primer set versus the log (ng) for each HCV replicon total RNA standard. The amount of HCV RNA for each replicon sample is calculated by taking the sample's Ct value, minus the line intercept, divided by the slope of the line. Similarly, the amount of Cyclophilin mRNA per cell is also quantified using a linear regression curve for a known nanogram (ng) amount of HCV replicon total RNA. Again, this is established by plotting the Cycle Threshold values (Ct) from the Cyclophilin probe and primer set versus the log (ng) for each HCV replicon total RNA standard.
(§4) Data was obtained for various compounds of the present invention using the methods described in the Example above, and is presented in the table immediately below. Data for replicons 1A, 1AY93H and 2B were obtained using Replicon Assay A and data for replicons 1AQ30D and 1B were obtained using Replicon Assay B.

HCV replicon 1AY93H = experiment: Cell-based HCV Replicon Assay A, replicon 1AY93H; conditions: read-out: 1A Y93H IC50, replicon 1AY93H
Experimental: as §1, §2, §3, §4

HCV replicon 1A = experiment: Cell-based HCV Replicon Assay A, replicon 1A
Experimental: as §1, §2, §3, §4

[1] = Hepatitis C virus, read-out: 2B IC50 (nM), replicon 2B

COC(=O)N[C@H](C(=O)N1CCC[C@H]1c1ncc(-c2cc(F)c3c(c2)OC(c2cnc(-c4ccncc4)s2)n2c-3cc3cc(-c4cnc([C@@H]5CCCN5C(=O)[C@@H](NC(=O)OC)C(C)C)[nH]4)ccc32)[nH]1)C(C)C (single isomer, unassigned) [Compound 410]
IC50 (HCV replicon 2B; read-out: 2B IC50, replicon 2B): 1.5 nM

COC(=O)NC(C(=O)N1CCC[C@H]1c1ncc(-c2ccc3c(c2)cc2n3C(c3cnc(-c4ccc(F)cc4)s3)Oc3cc(-c4cnc([C@@H]5CCCN5C(=O)[C@@H](NC(=O)OC)C(C)C)[nH]4)cc(F)c3-2)[nH]1)C1C[C@@H](C)O[C@@H](C)C1 (single isomer, unassigned) [Compound 79]
IC50 (HCV replicon 1AY93H): 0.0041 nM | IC50 (HCV replicon 2B; read-out: 2B IC50, replicon 2B): 0.002 nM

COC(=O)NC(C(=O)N1[C@@H]2C[C@@H]2C[C@H]1c1ncc(-c2ccc3c(c2)cc2n3C(c3cnc(C(C)(C)C)s3)Oc3cc(-c4cnc([C@@H]5CCCN5C(=O)[C@@H](NC(=O)OC)C(C)C)[nH]4)cc(F)c3-2)[nH]1)C1CCOC(C)(C)C1 (single isomer, unassigned) [Compound 329]
IC50 (HCV replicon 2B; read-out: 2B IC50, replicon 2B): 0.16 nM

COC(=O)NC(C(=O)N1[C@@H]2C[C@@H]2C[C@H]1c1ncc(-c2ccc3c(c2)cc2n3C(c3cnc(C(C)(C)C)s3)Oc3cc(-c4cnc([C@@H]5CCCN5C(=O)[C@@H](NC(=O)OC)C(C)C)[nH]4)cc(F)c3-2)[nH]1)C1CCOC(C)(C)C1 (single isomer, unassigned) [Compound 330]
IC50 (HCV replicon 2B; read-out: 2B IC50, replicon 2B): 0.016 nM

COC(=O)N[C@H](C(=O)N1CCC[C@H]1c1ncc(-c2cc(F)c3c(c2)OC(c2nnc(C)s2)n2c-3cc3cc(-c4cnc([C@@H]5CCCN5C(=O)[C@@H](NC(=O)OC)C(C)C)[nH]4)ccc32)[nH]1)C(C)C (single isomer, unassigned) [Compound 5]
IC50 (HCV replicon 2B; read-out: 2B IC50, replicon 2B): 3.06 nM

COC(=O)N[C@H](C(=O)N1CCC[C@H]1c1ncc(-c2cc(F)c3c(c2)OC(c2sc(C)nc2C(F)(F)F)n2c-3cc3cc(-c4cnc([C@@H]5CCCN5C(=O)[C@@H](NC(=O)OC)C(C)C)[nH]4)ccc32)[nH]1)C(C)C (mixture of isomers) [Compound 426]
IC50 (HCV replicon 1A; Hepatitis C virus): 2.2 pM

CCCc1ncc(C2Oc3cc(-c4cnc([C@@H]5CCCN5C(=O)[C@@H](NC(=O)OC)C(C)C)[nH]4)cc(C)c3-c3cc4cc(-c5cnc([C@@H]6CCCN6C(=O)C(NC(=O)OC)C6CCOC(C)(C)C6)[nH]5)ccc4n32)s1 (single isomer, unassigned) [Compound 226]
IC50 (HCV replicon 2B; [1]): 0.005 nM

COC(=O)N[C@H](C(=O)N1CCC[C@H]1c1ncc(-c2cc(F)c3c(c2)OC(c2cnc(C(C)C)s2)n2c-3cc3cc(-c4cnc([C@@H]5CCCN5C(=O)[C@@H](NC(=O)OC)C(C)C)[nH]4)ccc32)[nH]1)C(C)C (single isomer, unassigned) [Compound 85]
IC50 (HCV replicon 1A; Hepatitis C virus): 1.4 pM | IC50 (HCV replicon 2B; read-out: 2B IC50, replicon 2B): 1.08 nM

COC(=O)NC(C(=O)N1[C@@H]2C[C@@H]2C[C@H]1c1ncc(-c2ccc3c(c2)cc2n3C(c3cnc(C4CC4)s3)Oc3cc(-c4cnc([C@@H]5CCCN5C(=O)[C@@H](NC(=O)OC)C(C)C)[nH]4)cc(C)c3-2)[nH]1)C1CCOC(C)(C)C1 (single isomer, unassigned) [Compound 227]
IC50 (HCV replicon 2B; [1]): 0.016 nM

COC(=O)N[C@H](C(=O)N1CCC[C@H]1c1ncc(-c2cc(F)c3c(c2)OC(c2cncs2)n2c-3cc3cc(-c4cnc([C@@H]5CCCN5C(=O)[C@@H](NC(=O)OC)C(C)C)[nH]4)ccc32)[nH]1)C(C)C (single isomer, unassigned) [Compound 1]
IC50 (HCV replicon 2B; read-out: 2B IC50, replicon 2B): 0.88 nM

COC(=O)N[C@H](C(=O)N1CCC[C@H]1c1ncc(-c2cc(F)c3c(c2)OC(c2cnc(C4CC4)s2)n2c-3c(F)c3cc(-c4cnc([C@@H]5CCCN5C(=O)[C@@H](NC(=O)OC)C(C)C)[nH]4)ccc32)[nH]1)C(C)C (single isomer, unassigned) [Compound 22]
IC50 (HCV replicon 1AY93H): 0.86 nM | IC50 (HCV replicon 2B; read-out: 2B IC50, replicon 2B): 0.44 nM

COC(=O)N[C@H](C(=O)N1CCC[C@H]1c1ncc(-c2cc(F)c3c(c2)OC(c2nnc(C)s2)n2c-3cc3cc(-c4cnc([C@@H]5CCCN5C(=O)[C@@H](NC(=O)OC)C(C)C)[nH]4)ccc32)[nH]1)C(C)C (single isomer, unassigned) [Compound 6]
IC50 (HCV replicon 2B; [1]): 1.75 nM

COC(=O)N[C@H](C(=O)N1CCC[C@H]1c1ncc(-c2cc(F)c3c(c2)OC(c2cnc(-c4ncccn4)s2)n2c-3cc3cc(-c4cnc([C@@H]5CCCN5C(=O)[C@@H](NC(=O)OC)C(C)C)[nH]4)ccc32)[nH]1)C(C)C (mixture of isomers) [Compound 411]
IC50 (HCV replicon 1A; Hepatitis C virus): 51.2 pM

COC(=O)N[C@H](C(=O)N1CCC[C@H]1c1ncc(-c2cc(F)c3c(c2)OC(c2nc(C4CC4)cs2)n2c-3cc3cc(-c4cnc([C@@H]5CCCN5C(=O)[C@@H](NC(=O)OC)C(C)C)[nH]4)ccc32)[nH]1)C(C)C (single isomer, unassigned) [Compound 11]
IC50 (HCV replicon 1AY93H): 14.4 nM | IC50 (HCV replicon 2B; read-out: 2B IC50, replicon 2B): 6.06 nM

COC(=O)N[C@H](C(=O)N1CCC[C@H]1c1ncc(-c2cc(F)c3c(c2)OC(c2cnc(-c4ccc(C)o4)s2)n2c-3cc3cc(-c4cnc([C@@H]5CCCN5C(=O)[C@@H](NC(=O)OC)C(C)C)[nH]4)ccc32)[nH]1)C(C)C (single isomer, unassigned) [Compound 412]
IC50 (HCV replicon 2B; [1]): 0.12 nM

CCC(CC)c1ncc(C2Oc3cc(-c4cnc([C@@H]5CCCN5C(=O)[C@@H](NC(=O)OC)C(C)C)[nH]4)cc(F)c3-c3cc4cc(-c5cnc([C@@H]6CCCN6C(=O)[C@@H](NC(=O)OC)C(C)C)[nH]5)ccc4n32)s1 (single isomer, unassigned) [Compound 429]
IC50 (HCV replicon 1A): 1.2 pM

COC(=O)N[C@H](C(=O)N1CCC[C@H]1c1ncc(-c2cc(F)c3c(c2)OC(c2nc4ccccc4s2)n2c-3cc3cc(-c4cnc([C@@H]5CCCN5C(=O)[C@@H](NC(=O)OC)C(C)C)[nH]4)ccc32)[nH]1)C(C)C (single isomer, unassigned) [Compound 400]
IC50 (HCV replicon 2B; read-out: 2B IC50, replicon 2B): > 1.67 nM

COC(=O)NC(C(=O)N1[C@@H]2C[C@@H]2C[C@H]1c1ncc(-c2ccc3c(c2)cc2n3C(c3cnc(C4CC4)s3)Oc3cc(-c4cnc([C@@H]5CCCN5C(=O)[C@@H](NC(=O)OC)C(C)C)[nH]4)cc(F)c3-2)[nH]1)C1CCOC(C)(C)C1 (single isomer, unassigned) [Compound 314]
IC50 (HCV replicon 1A): 2.6 pM | IC50 (HCV replicon 2B; read-out: 2B IC50, replicon 2B): 0.002 nM

COC(=O)N[C@H](C(=O)N1CCC[C@H]1c1ncc(-c2cc(F)c3c(c2)OC(c2cnns2)n2c-3cc3cc(-c4cnc([C@@H]5CCCN5C(=O)[C@@H](NC(=O)OC)C(C)C)[nH]4)ccc32)[nH]1)C(C)C (single isomer, unassigned) [Compound 4]
IC50 (HCV replicon 1AY93H): 1.39 nM | IC50 (HCV replicon 2B; read-out: 2B IC50, replicon 2B): 0.98 nM

COC(=O)N[C@H](C(=O)N1CCC[C@H]1c1ncc(-c2cc(F)c3c(c2)OC(c2cnc(CC(C)C)s2)n2c-3cc3cc(-c4cnc([C@@H]5CCCN5C(=O)[C@@H](NC(=O)OC)C(C)C)[nH]4)ccc32)[nH]1)C(C)C (single isomer, unassigned) [Compound 513]
IC50 (HCV replicon 2B; replicon 2B, read-out: 2B IC50): 1.21 nM

COC(=O)N[C@H](C(=O)N1CCC[C@H]1c1ncc(-c2cc(F)c3c(c2)OC(c2nc(C4CC4)cs2)n2c-3cc3cc(-c4cnc([C@@H]5CCCN5C(=O)[C@@H](NC(=O)OC)C(C)C)[nH]4)ccc32)[nH]1)C(C)C (single isomer, unassigned) [Compound 12]
IC50 (HCV replicon 1AY93H): 0.18 nM | IC50 (HCV replicon 2B; read-out: 2B IC50, replicon 2B): 2.21 nM

COC(=O)N[C@H](C(=O)N1CCC[C@H]1c1ncc(-c2cc(F)c3c(c2)OC(c2sc(C)nc2C(F)(F)F)n2c-3cc3cc(-c4cnc([C@@H]5CCCN5C(=O)[C@@H](NC(=O)OC)C(C)C)[nH]4)ccc32)[nH]1)C(C)C (single isomer, unassigned) [Compound 427]
IC50 (HCV replicon 1A; Hepatitis C virus): 2.4 pM
